The experiment has as its system sodium channel response in hTRPV1-N1E115 cells. The experiment in a line: FLIPR membrane potential assay of sodium channel response in hTRPV1-N1E115 cells with or without heat (47° C.) activation. Format: cell-based. The settings on record: for hTRPV1-N1E Nav 0.1 mM (% inhibition) 25° C. / hTRPV1-N1E Nav 1 mM (% inhibition) 25° C.: 25° C. (no heat activation); for IC50: 47° C., read-out: hTRPV1-N1E IC50 (μM) 47° C.; for hTRPV1-N1E Nav 0.1 mM (% inhibition) 47° C. / hTRPV1-N1E Nav 1 mM (% inhibition) 47° C.: 47° C. (heat activated). The source says: In one embodiment, a modified FLIPR® (Fluorometric Imaging Plate Reader) based assay system was developed which is capable of discriminating between non-specific versus hTRPV1-mediated entry of test compounds. Advantageously, the assay system utilizes heat activated opening of hTRPV1 channels followed by an assessment of internal sodium channel block. The assay allows a permanently charged compound to selectively enter through opened hTRPV1 channels and that compound's potency in inhibiting sodium channels from the cytoplasm side of the same cell can be assessed and quantified.
The test compounds are diluted in the Assay Buffer and added to each well of a specific 384-well ‘compound plate’, which serves as a source plate for compound addition using the FLIPR® platform. The concentration of compounds in the compound-plate was adjusted to achieve the desired final concentration when added to the cells in the ‘cell-plate’. After completion of the dye incubation period, the dye loaded cell-plates and the compound source plates are inserted into the FLIPR® Tetra device with a 384 FLIPR® tip box (Molecular Devices, Inc.) according to manufacturer's instructions. The compounds are robotically added to the dye loaded cell-plates using software integral to the FLIPR® Tetra instrument.
Immediately following compound addition, hTRPV1 is activated, in one of the duplicate cell plates, by heating. Specifically, entire multi-well plate containing the compound-cells mixture is incubated at 47° C. for 10 minutes, after which they are returned to room temperature (about 25° C.) for a further 30 minutes. Heat activation of hTRPV1 was omitted from the replicate cell plate which was simply maintained at room temperature for the entire 40 minutes.
A membrane potential response is elicited in the dye- and compound-loaded cells by the addition of veratridine which is a known sodium channel ‘agonist’. As illustrated in an example herein, an agonist plate containing veratridine (Sigma) is prepared in advance and is inserted into suitable devices such as, e.g., the FLIPR® TETRA device for a “2nd addition” as instructed by the manufacturer. The concentration of veratridine in the ‘agonist plate’ was adjusted to achieve a final concentration of 100 μM when added to the cells in the cell-plate. Final concentrations of veratridine greater or lesser than 100 μM may also be used but the signal measured by the FLIPR® TETRA device or another suitable device may vary accordingly.
The exposure of the cells in the cell-plate to veratridine induces sodium channels in the cells to open and the resulting ion flux produces a membrane potential depolarization that is detected as a fluorescence signal by the FLIPR® Tetra Device. The activity of test compounds is determined by their ability to attenuate the veratridine-induced fluorescence signal, the most promising compounds are those that show an enhanced activity in the heat-activated cell plate over the non-heat-activated cell plate. This differential activity reflects enhanced compound uptake via the heat activated and open hTRPV1 channels and rests on the fact that sodium channel block requires test compounds to act from the cytoplasmic side of the cell membrane.
In vitro assays were developed for assessing the inhibition of sodium channel response with compounds following stimulation by heat (47° C.) in cells expressing hTRPV1.
(v) Membrane potential Assay to Assess Sodium Channel Function in hTRPV1-Expressing Cells • Cells were plated at 5000 per 50 μL [DMEM+10% FBS+300 μg/mL H\hygromycin] per well, in a 384 clear bottom poly-D-lysine coated plate and incubated at 37° C. and 5% CO2 for 48 hours. On the day of the assay, media were discarded gently and 30 μL of the dye [FMP blue dye was prepared in assay buffer] per well was added and dye-loading was allowed to proceed for 20 min at room temperature. […]

As for `Cc1cc(C)c(C(=O)O[C@@H](C)C[N+](C)(C)C2CCCCC2)c(C)c1.[I-]` [Example 22, (S)-N,N-Dimethyl-N-[2-((2,4,6-trimethylbenzoyl)oxy)propyl] cyclohexanaminium iodide], the “hTRPV1-N1E Nav 0.1 mM (% inhibition) 25° C.” value is recorded as 33 (N = 4) %; the “hTRPV1-N1E Nav 1 mM (% inhibition) 25° C.” value is 91 (N = 4) %; the IC50 (in general, the concentration that gives 50% inhibition) was 10 to 100 µM.

Regarding `Cc1cccc(C)c1C(=O)O[C@@H](C)C[N+](C)(C)C1CCCCC1.[I-]` [Example 23, (S)-N-[2-((2,6-Dimethylbenzoyl)oxy)propyl]-N,N-dimethyl-cyclohexanaminium iodide], the “hTRPV1-N1E Nav 0.1 mM (% inhibition) 25° C.” value is reported as 38 (N = 4) %, the “hTRPV1-N1E Nav 1 mM (% inhibition) 25° C.” value is 76 (N = 4) % and the half-maximal inhibitory concentration (IC50) lay in the range of 10 to 100 µM.

Regarding `Cc1cccc(C)c1C(=O)O[C@H](C)C[N+](C)(C)C1CCCCC1.[I-]` [Example 24, (R)-N-[2-((2,6-Dimethylbenzoyl)oxy)propyl]-N,N-dimethyl-cyclohexanaminium iodide], the “hTRPV1-N1E Nav 0.1 mM (% inhibition) 25° C.” value was 22 (N = 4) %, the “hTRPV1-N1E Nav 1 mM (% inhibition) 25° C.” value is on record as 81 (N = 4) % and the 50% inhibitory concentration (IC50) was 10 to 100 µM.

Consider `Cc1cc(C)c(C(=O)O[C@H](C)C[N+](C)(C)C2CCCCC2)c(C)c1.[I-]` [Example 25, (R)-N,N-Dimethyl-N-[2-((2,4,6-trimethylbenzoyl)oxy)propyl] cyclohexanaminium iodide], for which the “hTRPV1-N1E Nav 0.1 mM (% inhibition) 25° C.” value is on record as 48 (N = 4) %, the “hTRPV1-N1E Nav 1 mM (% inhibition) 25° C.” value is listed as 89 (N = 4) % and the IC50 was in the range of 10 to 100 µM.

Turning to `CC(C[N+](C)(C)C1CCCCC1)OC(=O)c1cccc(C(C)C)c1.[I-]` (stereo not shown) [Example 26, N-[2-((3-Isopropylbenzoyl)oxy)propyl]-N,N-dimethylcyclo-hexanaminium iodide], the “hTRPV1-N1E Nav 0.1 mM (% inhibition) 25° C.” value was 4 (N = 4) %, the “hTRPV1-N1E Nav 0.1 mM (% inhibition) 47° C.” value is recorded as 88 (N = 4) %, the “hTRPV1-N1E Nav 1 mM (% inhibition) 25° C.” value is 57 (N = 4) % and the “hTRPV1-N1E Nav 1 mM (% inhibition) 47° C.” value is 89 (N = 4) %. Further, the IC50 was 10 to 100 µM.

For `CC(C[N+](C)(C)C1CCCCC1)OC(=O)c1c(Cl)cccc1Cl.[I-]` (stereo not shown) [Example 27, N-[2-((2,6-Dichlorobenzoyl)oxy)propyl]-N,N-dimethylcyclo-hexanaminium iodide], the “hTRPV1-N1E Nav 0.1 mM (% inhibition) 25° C.” value is given as 23 (N = 4) %, the “hTRPV1-N1E Nav 0.1 mM (% inhibition) 47° C.” value is listed as 73 (N = 4) %, the “hTRPV1-N1E Nav 1 mM (% inhibition) 25° C.” value is 74 (N = 4) % and the “hTRPV1-N1E Nav 1 mM (% inhibition) 47° C.” value is listed as 85 (N = 4) %. For the same compound, the half-inhibitory concentration (IC50) fell in the range of 100 to 1000 µM.

Regarding `Cc1cc(C)c(C(=O)OC(C)C[N+](C)(C)C2CCOCC2)c(C)c1.[I-]` (stereo not shown) [Example 28, N,N-Dimethyl-N-[2-((2,4,6-trimethylbenzoyl)oxy)propyl]tetrahydro-2H-pyran-4-aminium iodide], the “hTRPV1-N1E Nav 0.1 mM (% inhibition) 25° C.” value was 0 (N = 4) %, the “hTRPV1-N1E Nav 0.1 mM (% inhibition) 47° C.” value is 32 (N = 4) %, the “hTRPV1-N1E Nav 1 mM (% inhibition) 25° C.” value is reported as 5 (N = 4) % and the “hTRPV1-N1E Nav 1 mM (% inhibition) 47° C.” value is 58 (N = 4) %.

In the case of `CC(C[N+](C)(C)C1CCCCC1)OC(=O)c1cccc(Cl)c1Cl.[I-]` (stereo not shown) [Example 29, N-[2-((2,3-Dichlorobenzoyl)oxy)propyl]-N,N-dimethyl-cyclohexanaminium iodide], the “hTRPV1-N1E Nav 0.1 mM (% inhibition) 25° C.” value was 36 (N = 4) %, the “hTRPV1-N1E Nav 0.1 mM (% inhibition) 47° C.” value was 52 (N = 4) %, the “hTRPV1-N1E Nav 1 mM (% inhibition) 25° C.” value is listed as 50 (N = 4) % and the “hTRPV1-N1E Nav 1 mM (% inhibition) 47° C.” value is 61 (N = 4) %. Also, the concentration for half-maximal inhibition (IC50) was in the range of 10 to 100 µM.

Turning to `CC(C[N+](C)(C)C1CCCCC1)OC(=O)c1cccs1.[I-]` (stereo not shown) [Example 32, N,N-Dimethyl-N-[2-((thiophene-2-carbonyl)oxy)propyl] cyclohexanaminium iodide], the “hTRPV1-N1E Nav 0.1 mM (% inhibition) 25° C.” value is on record as 4 (N = 4) %, the “hTRPV1-N1E Nav 0.1 mM (% inhibition) 47° C.” value was 48 (N = 4) %, the “hTRPV1-N1E Nav 1 mM (% inhibition) 25° C.” value is 1 (N = 4) % and the “hTRPV1-N1E Nav 1 mM (% inhibition) 47° C.” value was 54 (N = 4) %.

As for `CC(C[N+](C)(C)C1CCCCC1)OC(=O)c1ccsc1.[I-]` (stereo not shown) [Example 33, N,N-Dimethyl-N-[2-((thiophene-3-carbonyl)oxy)propyl] cyclohexanaminium iodide], the “hTRPV1-N1E Nav 0.1 mM (% inhibition) 25° C.” value is on record as 3 (N = 4) %, the “hTRPV1-N1E Nav 0.1 mM (% inhibition) 47° C.” value is 36 (N = 4) %, the “hTRPV1-N1E Nav 1 mM (% inhibition) 25° C.” value is reported as 23 (N = 4) % and the “hTRPV1-N1E Nav 1 mM (% inhibition) 47° C.” value is on record as 57 (N = 4) %.

`CC(C[N+](C)(C)C1CCCCC1)OC(=O)c1cccn1C.[I-]` (stereo not shown) [Example 34, N,N-Dimethyl-N-[2-((1-methyl-1H-pyrrole-2-carbonyl)oxy)propyl] cyclohexanaminium iodide]: the “hTRPV1-N1E Nav 0.1 mM (% inhibition) 25° C.” value was 35 (N = 4) %, the “hTRPV1-N1E Nav 0.1 mM (% inhibition) 47° C.” value is reported as 36 (N = 4) %, the “hTRPV1-N1E Nav 1 mM (% inhibition) 25° C.” value is given as 35 (N = 4) % and the “hTRPV1-N1E Nav 1 mM (% inhibition) 47° C.” value is given as 55 (N = 4) %.

On to `CC(C[N+](C)(C)C1CCCCC1)OC(=O)c1cc2ccccc2s1.[I-]` (stereo not shown) [Example 35, N-[2-((Benzo[b]thiophene-2-carbonyl)oxy)propyl]-N,N-dimethyl-cyclohexanaminium iodide], for which the “hTRPV1-N1E Nav 0.1 mM (% inhibition) 25° C.” value is reported as 35 (N = 4) %, the “hTRPV1-N1E Nav 0.1 mM (% inhibition) 47° C.” value is on record as 74 (N = 4) % and the IC50 lay in the range of 10 to 100 µM.

As to `Cc1cccc(C)c1C(=O)OC(C)C[N+](C)(C)C1CCC(C)CC1.[I-]` (stereo not shown) [Example 36, N-[2-((2,6-Dimethylbenzoyl)oxy)propyl]-N,N,4-trimethylcyclo-hexanaminium iodide], the “hTRPV1-N1E Nav 0.1 mM (% inhibition) 25° C.” value is given as 50 (N = 4) %, the “hTRPV1-N1E Nav 0.1 mM (% inhibition) 47° C.” value was 83 (N = 4) %, the “hTRPV1-N1E Nav 1 mM (% inhibition) 25° C.” value is recorded as 84 (N = 4) % and the “hTRPV1-N1E Nav 1 mM (% inhibition) 47° C.” value is reported as 95 (N = 4) %. The IC50 was in the range of 10 to 100 µM.

As to `Cc1ccsc1C(=O)OC(C)C[N+](C)(C)C1CCCCC1.[I-]` (stereo not shown) [Example 37, N,N-Dimethyl-N-[2-((3-methylthiophene-2-carbonyl)oxy)propyl] cyclohexanaminium iodide], the “hTRPV1-N1E Nav 0.1 mM (% inhibition) 25° C.” value was 15 (N = 4) %, the “hTRPV1-N1E Nav 0.1 mM (% inhibition) 47° C.” value is reported as 31 (N = 4) %, the “hTRPV1-N1E Nav 1 mM (% inhibition) 25° C.” value is 20 (N = 4) % and the “hTRPV1-N1E Nav 1 mM (% inhibition) 47° C.” value is reported as 70 (N = 4) %.

`Cc1cccc(C)c1C(=O)OCC[N+](C)(C)C1CCCCC1.[I-]` [Example 40, N-[2-((2,6-Dimethylbenzoyl)oxy)ethyl]-N,N-dimethylcyclo-hexanaminium iodide]: the “hTRPV1-N1E Nav 0.1 mM (% inhibition) 25° C.” value was 10 (N = 4) %, the “hTRPV1-N1E Nav 0.1 mM (% inhibition) 47° C.” value is 43 (N = 4) %, the “hTRPV1-N1E Nav 1 mM (% inhibition) 25° C.” value is 12 (N = 4) % and the “hTRPV1-N1E Nav 1 mM (% inhibition) 47° C.” value is 80 (N = 4) %.

Turning to `Cc1cc(C)c(C(=O)OCC[N+](C)(C)C2CCCCC2)c(C)c1.[I-]` [Example 41, N-[2-((2,4,6-Trimethylbenzoyl)oxy)ethyl]-N,N-dimethylcyclo-hexanaminium iodide], the “hTRPV1-N1E Nav 0.1 mM (% inhibition) 25° C.” value is reported as 13 (N = 4) %, the “hTRPV1-N1E Nav 0.1 mM (% inhibition) 47° C.” value is given as 66 (N = 4) %, the “hTRPV1-N1E Nav 1 mM (% inhibition) 25° C.” value is 22 (N = 4) % and the “hTRPV1-N1E Nav 1 mM (% inhibition) 47° C.” value was 89 (N = 4) %. In addition, the half-inhibitory concentration (IC50) is 10 to 100 µM.

These data come from patent US9180115B2, “Cyclohexylamines” (Asana Biosciences, LLC, priority 2011, dated 2015).
